In PubChem BioAssay (NCI):
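Dose response: 5 concentrations. Exposure: 48 h. Format: 96-well plates. Endpoint: linear interpolation; highest concentration if not reached. GI50 = concentration required for 50% inhibition of growth. TGI denotes the concentration required for complete inhibition of growth.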

How the values were obtained:
Assay in all cases: DTP human tumour cell line panel, 48 h
[1] = tested on: RPMI-8226 leukemia
[2] = tested on: NCI-H23 lung
[3] = tested on: SK-MEL-5 melanoma
[4] = tested on: ACHN renal
[5] = tested on: SK-OV-3 ovarian
[6] = tested on: COLO 205 colon
[7] = tested on: KM12 colon
[8] = tested on: SF-268 CNS
[9] = tested on: SF-295 CNS

Row | SMILES | TGI [1] | TGI [2] | TGI [3] | TGI [4] | TGI [5] | TGI [6] | TGI [7] | TGI [8] | GI50 [1] | GI50 [3] | GI50 [4] | GI50 [5] | GI50 [6] | GI50 [9] | TGI [9] | GI50 [8]
1 | O=C(N/C(=C\c1ccc(Br)cc1)c1nc2ccccc2s1)c1ccccc1 | > 100 µM | > 100 µM | > 100 µM | > 100 µM | > 100 µM | > 100 µM | > 100 µM | > 100 µM | – | – | – | – | – | – | – | –
2 | COc1ccc(NC(=O)Nc2ccc(Nc3nc(C)cc(Nc4ccc(C)cc4)n3)cc2)cc1 | 1.65 µM | – | 2.96 µM | 3.13 µM | 6.59 µM | 3.62 µM | – | 5.07 µM | 0.71 µM | 1.6 µM | 1.75 µM | 2.46 µM | 1.94 µM | 1.71 µM | 3.18 µM | 2.16 µM
3 | Cc1ccc(S(=O)(=O)NC(CCC(=O)Nc2ccccc2)C(=O)Nc2ccccc2)cc1 (configuration not stated) | 1.58 µM | – | 0.656 µM | – | 2.39 µM | – | – | – | 0.309 µM | 0.226 µM | – | 0.47 µM | – | 0.362 µM | 1.69 µM | –
4 | CN(C)c1nc(N(C)C)n2nc(-c3ccccc3[N+](=O)[O-])nc2n1 | > 100 µM | > 100 µM | > 100 µM | > 100 µM | > 100 µM | > 100 µM | > 100 µM | > 100 µM | – | – | – | – | – | – | > 100 µM | –
5 | CCc1ccc(/C(C)=N/NC(N)=S)cc1 | > 100 µM | > 100 µM | > 100 µM | – | > 100 µM | > 100 µM | > 100 µM | > 100 µM | – | – | – | – | – | – | > 100 µM | –
6 | NC1=NC2(O)c3ccccc3C(=O)C2(O)N1 (configuration not stated) | > 100 µM | > 100 µM | > 100 µM | > 100 µM | > 100 µM | > 100 µM | > 100 µM | > 100 µM | – | – | – | – | – | – | > 100 µM | –
7 | O=C(CCc1ccccc1)On1nnc2ccccc2c1=O | – | > 100 µM | > 100 µM | > 100 µM | > 100 µM | > 100 µM | > 100 µM | > 100 µM | – | – | – | – | – | – | > 100 µM | –
8 | O=C(CCCNC(=O)OCc1ccccc1)OCc1ccc2c(c1)C(=O)c1ccccc1C2=O | > 100 µM | > 100 µM | > 100 µM | > 100 µM | 79 µM | > 23 µM | > 100 µM | > 100 µM | – | – | – | – | – | – | 83.9 µM | –
9 | COc1ccc(CCNCc2cccc(OC)c2OC)cc1OC | > 100 µM | > 100 µM | > 100 µM | > 100 µM | > 100 µM | > 100 µM | > 100 µM | > 100 µM | – | – | – | – | – | – | > 100 µM | –
10 | COc1ccc(/C=C/c2nc(=S)[nH][nH]2)cc1 | > 100 µM | > 100 µM | > 100 µM | > 100 µM | – | – | – | > 100 µM | – | – | – | – | – | – | > 100 µM | –
11 | Cc1cccc2c1Oc1cc(Cl)ccc1C2NC(=O)CN(C)C (configuration not stated) | > 100 µM | > 100 µM | 49.3 µM | > 100 µM | > 100 µM | > 100 µM | – | > 100 µM | – | – | – | – | – | – | – | –
12 | COC1(OC)CC2C(=O)N(Cc3ccccc3)C1CC2S(=O)(=O)c1ccccc1 (configuration not stated) | > 100 µM | > 100 µM | > 100 µM | > 100 µM | > 100 µM | > 100 µM | > 100 µM | – | – | – | – | – | – | – | > 100 µM | –
13 | CCOC(=O)C1=C(NC(C)(C)C)OCC1=O | > 100 µM | > 100 µM | – | > 100 µM | > 100 µM | > 100 µM | > 100 µM | > 100 µM | – | – | – | – | – | – | > 100 µM | –
14 | NS(=O)(=O)c1ccc(NC(=O)CC(=O)Nc2ccc(S(N)(=O)=O)cc2)cc1 | > 100 µM | > 100 µM | > 100 µM | > 100 µM | > 100 µM | > 100 µM | – | > 100 µM | – | – | – | – | – | – | > 100 µM | –
15 | C[C@H]1COC2(c3ccccc3)CCC(=O)N12 (some centres not stated) | > 100 µM | > 100 µM | > 100 µM | > 100 µM | – | > 100 µM | > 100 µM | > 100 µM | – | – | – | – | – | – | > 100 µM | –
16 | Cc1[nH]c(=O)nc(CC(O)(c2ccccc2)c2ccccc2)c1-c1ccccc1 | – | > 100 µM | > 100 µM | > 100 µM | > 100 µM | > 100 µM | > 100 µM | > 100 µM | – | – | – | – | – | – | > 100 µM | –
17 | Cc1c(C2Cc3ccccc3N2C(=O)/C=C\C(=O)O)c2ccccc2n1C (configuration not stated) | – | 62.9 µM | 41.5 µM | > 100 µM | 48.5 µM | 32.1 µM | 35.6 µM | 35.9 µM | – | – | – | – | – | – | 50.4 µM | –
18 | O=C1OC(c2ccccc2)=N/C1=C\c1c(O)cc(O)cc1O | > 100 µM | > 100 µM | > 100 µM | > 100 µM | > 100 µM | > 100 µM | > 100 µM | > 100 µM | – | – | – | – | – | – | – | –
19 | O=C(CCC(=O)N/N=C/c1ccccc1O)N/N=C/c1ccccc1O | > 100 µM | > 100 µM | > 100 µM | – | 37.2 µM | > 100 µM | > 100 µM | 52.4 µM | – | – | – | – | – | – | > 100 µM | –
20 | N#CCC(=O)N/N=C1/C(=O)NC(=O)C(=O)C1c1nc2ccccc2s1 (configuration not stated) | > 100 µM | > 100 µM | > 100 µM | > 100 µM | > 100 µM | > 100 µM | – | > 100 µM | – | – | – | – | – | – | > 100 µM | –
